Each block holds one compound with its values, some of them ahead of it. Activity calls are given as the source filed them.
Experiments:
Cytochrome P450 2C19 = Cytochrome P450 2C19 (Homo sapiens, UniProt P33261); test: Cytochrome panel assay with activity outcomes. Panel member name: p450-cyp2c19 Compounds with AC50 equal or less than 10 uM are considered active; type: functional
[1] = inhibitors of intracellular T. cruzi replication, confirmation, NIH3T3 host cells, beta-gal luminescence (AID 2044); type: functional, cell-based;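 further: intracellular parasites grown in NIH/3T3 mouse fibroblasts as host cells; luminescent beta-galactosidase reporter signal from transgenic T. cruzi replicating inside host cells; inhibitors lower the luminescence signal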
[2] = cytotoxicity toward NIH3T3 fibroblasts, dose response, counter-screen, cell-based, ATP luminescence, mouse fibroblasts (AID 2010); type: functional;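 further: cells exposed to compound for about 90 hours before reading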
Cytochrome P450 3A4 = Cytochrome P450 3A4 (Homo sapiens, UniProt P08684);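 further: CYP3A4 tested as one member of a cytochrome P450 panel screen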
Sequence of Cytochrome P450 3A4 (P08684 whole entry): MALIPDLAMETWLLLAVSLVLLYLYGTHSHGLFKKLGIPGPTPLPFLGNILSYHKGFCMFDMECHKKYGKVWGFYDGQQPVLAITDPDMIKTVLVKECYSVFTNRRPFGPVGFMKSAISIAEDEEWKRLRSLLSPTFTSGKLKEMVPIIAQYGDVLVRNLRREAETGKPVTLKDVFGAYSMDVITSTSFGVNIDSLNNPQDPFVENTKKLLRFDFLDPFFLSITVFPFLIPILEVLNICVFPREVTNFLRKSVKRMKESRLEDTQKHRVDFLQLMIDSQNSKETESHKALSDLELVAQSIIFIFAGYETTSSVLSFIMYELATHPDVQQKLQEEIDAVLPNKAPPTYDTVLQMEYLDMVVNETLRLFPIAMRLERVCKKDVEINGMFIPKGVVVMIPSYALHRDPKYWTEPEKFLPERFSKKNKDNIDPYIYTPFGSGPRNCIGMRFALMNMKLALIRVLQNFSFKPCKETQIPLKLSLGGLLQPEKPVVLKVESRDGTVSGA

[3] = molecular target: T1, Rac GTPase-activating protein 1 (Homo sapiens, UniProt Q9H0H5); test: MgcRacGAP GTPase-activating activity inhibitors, confirmation, biochemical, ADP Hunter fluorescence, primary and confirmatory (AID 624330); type: functional
T1 sequence (Q9H0H5 whole entry): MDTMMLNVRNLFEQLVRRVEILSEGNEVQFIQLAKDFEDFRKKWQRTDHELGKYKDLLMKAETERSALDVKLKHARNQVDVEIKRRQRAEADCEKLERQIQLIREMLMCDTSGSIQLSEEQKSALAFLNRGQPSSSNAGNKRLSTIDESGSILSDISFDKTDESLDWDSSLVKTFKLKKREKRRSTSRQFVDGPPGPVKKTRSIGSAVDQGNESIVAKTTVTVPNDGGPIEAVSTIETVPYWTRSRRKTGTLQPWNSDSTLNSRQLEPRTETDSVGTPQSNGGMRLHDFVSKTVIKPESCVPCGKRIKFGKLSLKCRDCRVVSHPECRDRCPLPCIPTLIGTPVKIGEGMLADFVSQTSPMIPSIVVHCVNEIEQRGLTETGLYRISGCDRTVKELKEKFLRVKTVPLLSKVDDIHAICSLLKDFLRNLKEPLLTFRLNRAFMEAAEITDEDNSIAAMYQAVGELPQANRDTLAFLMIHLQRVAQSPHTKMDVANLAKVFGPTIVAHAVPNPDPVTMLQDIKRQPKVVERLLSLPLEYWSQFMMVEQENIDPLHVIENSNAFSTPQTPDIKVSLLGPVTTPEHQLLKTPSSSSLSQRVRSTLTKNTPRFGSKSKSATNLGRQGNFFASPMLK

Cytochrome P450 2C9 = Cytochrome P450 2C9 (Homo sapiens, UniProt P11712)
Sequence of Cytochrome P450 2C9 (P11712 whole entry): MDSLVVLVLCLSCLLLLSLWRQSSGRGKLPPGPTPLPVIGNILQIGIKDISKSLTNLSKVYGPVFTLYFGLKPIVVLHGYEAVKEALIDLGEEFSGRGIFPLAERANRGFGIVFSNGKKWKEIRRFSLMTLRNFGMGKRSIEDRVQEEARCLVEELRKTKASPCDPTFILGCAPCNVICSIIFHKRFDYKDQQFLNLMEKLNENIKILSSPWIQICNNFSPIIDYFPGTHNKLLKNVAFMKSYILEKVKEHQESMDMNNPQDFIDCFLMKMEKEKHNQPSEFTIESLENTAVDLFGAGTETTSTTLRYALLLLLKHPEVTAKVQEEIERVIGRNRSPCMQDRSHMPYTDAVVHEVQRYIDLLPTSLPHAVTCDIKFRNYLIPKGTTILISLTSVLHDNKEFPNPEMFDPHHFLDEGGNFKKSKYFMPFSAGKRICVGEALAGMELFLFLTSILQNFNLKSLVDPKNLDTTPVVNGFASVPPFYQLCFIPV

[4] = Luminescence Cell-Based Dose Response HTS to Identify Activators of Luciferase Translation or Activity in H4 […] Cells. [Related pubchem assays: 1829 (Project Summary), 1814 (Primary HTS)]; type: functional

Sequence of Cytochrome P450 2C19 (P33261 whole entry): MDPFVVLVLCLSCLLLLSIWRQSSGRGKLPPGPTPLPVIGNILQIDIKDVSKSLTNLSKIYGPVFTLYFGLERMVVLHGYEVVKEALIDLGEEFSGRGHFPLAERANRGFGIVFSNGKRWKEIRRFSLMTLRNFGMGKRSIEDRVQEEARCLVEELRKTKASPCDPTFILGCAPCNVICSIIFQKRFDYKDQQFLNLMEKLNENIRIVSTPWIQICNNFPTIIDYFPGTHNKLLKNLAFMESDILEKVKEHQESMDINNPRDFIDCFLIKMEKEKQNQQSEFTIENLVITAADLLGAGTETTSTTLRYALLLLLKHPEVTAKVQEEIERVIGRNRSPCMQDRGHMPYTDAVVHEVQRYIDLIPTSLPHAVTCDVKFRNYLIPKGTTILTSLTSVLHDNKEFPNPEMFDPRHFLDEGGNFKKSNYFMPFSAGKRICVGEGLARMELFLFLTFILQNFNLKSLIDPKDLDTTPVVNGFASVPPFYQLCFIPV

SMILES: Cc1ccc(CS(=O)(=O)CCC(=O)NCCCN2CCCC2)cc1
AC50 (Cytochrome P450 2C19): inconclusive

SMILES: CC(=O)c1cccc(Nc2cc(C)nc3c(C)cc(C)cc23)c1
EC50 [1]: 1.42 µM (active) | EC50 [2]: > 60 µM (inconclusive)

SMILES: Cc1cc(Br)ccc1NC(=O)CCSc1ccccc1
AC50 (Cytochrome P450 3A4): 6.31 µM (inconclusive)

SMILES: O=C(Nc1ccccc1N1CCCC1)c1ccc([N+](=O)[O-])cc1Cl
EC50 [1]: 2.37 µM (active) | EC50 [2]: > 60 µM (not active)

SMILES: CCc1cccc(CN2CCC(CNC(=O)Nc3ccc(Cl)cc3)CC2)c1
EC50 [1]: 1.25 µM (active) | EC50 [2]: > 60 µM (not active)

SMILES: COC(=O)[C@@]1(Cc2ccc(F)cc2)[C@@H]2C(=CC(=O)[C@H]2CC(=O)C(=O)N2CCCC2)CN1C(=O)c1ccccc1
AC50 (Cytochrome P450 3A4): 5.01 µM (inconclusive)

SMILES: CCN(CC)CCN(C(=O)c1cccc([N+](=O)[O-])c1)c1nc2ccc(OC)cc2s1
EC50 [1]: 0.158 µM (active) | EC50 [2]: > 60 µM (inconclusive)

SMILES: COc1ccc(CNC(=O)C2CCCN(Cc3nc(-c4cccc(C)c4)oc3C)C2)cc1 (stereo not drawn)
EC50 [1]: 0.381 µM (active) | EC50 [2]: > 60 µM (not active)

SMILES: O=C1CN2CCN(CC2)CC(=O)Nc2ccc(cc2)S(=O)(=O)c2ccc(cc2)NC(=O)CN2CCN(CC2)CC(=O)Nc2ccc(cc2)S(=O)(=O)c2ccc(cc2)N1
AC50 (Cytochrome P450 2C9): 0.398 µM (inconclusive)

SMILES: COc1ccccc1N1CCN(CC(=O)c2ccc(F)cc2)CC1
IC50 [3]: 157 µM (active)

SMILES: CCOC(=O)c1sc(NC(=O)CCCCCN2C(=O)c3cccc4cccc(c34)C2=O)nc1C
AC50 (Cytochrome P450 2C19; read-out: AC50): 6.31 µM (inconclusive) | AC50 (Cytochrome P450 3A4): 5.01 µM (inconclusive) | AC50 (Cytochrome P450 2C9): 2.24 µM (inconclusive)

SMILES: O=C1C[C@@H](c2ccc(O)cc2)Oc2cc(O)cc(O)c21 [NARINGENIN]
AC50 (Cytochrome P450 2C19; read-out: AC50): 3.98 µM (inconclusive)

SMILES: Cc1[nH]c2ccccc2c1C(=O)CN1CC=C(c2ccccc2)CC1
EC50 [1]: 0.857 µM (active) | EC50 [2]: > 60 µM (not active)

SMILES: C[N+]1(C)CCN(c2ccccc2)CC1 [DIMETHYLPHENYLPIPERAZINIUM]
AC50 (Cytochrome P450 3A4): 10 µM (inconclusive)

SMILES: COc1ccc(-c2cnc(N)nc2-c2ccc(OCc3ccccc3)cc2O)cc1
EC50 [1]: 2.19 µM (active) | EC50 [2]: 10.6 µM (active)

SMILES: O=C(c1cc(-c2ccncc2)nc2ccccc12)N1CCN(c2ccc(N3CCOCC3)nn2)CC1
AC50 (Cytochrome P450 2C19; read-out: AC50): 15.8 µM (inconclusive)

SMILES: Cc1ccc(NC(=O)c2ccc(OC(=O)CCN3C(=O)c4ccccc4C3=O)cc2)cc1
EC50 [4]: 37.8 µM (active)

SMILES: CCOC(=O)Nc1ccc2c(c1)N(C(=O)CCN1CCN(C)CC1)c1ccccc1S2
AC50 (Cytochrome P450 2C19; read-out: AC50): 1.26 µM (inconclusive) | AC50 (Cytochrome P450 3A4): 1.26 µM (inconclusive)

SMILES: Cc1ccc(/C=N/n2c(S)nnc2COc2ccccc2)s1
AC50 (Cytochrome P450 2C19; read-out: AC50): 2.24 µM (inconclusive)

SMILES: COC(=O)C1CCN(c2cc(=O)n(C3CCCCC3)c(=O)[nH]2)CC1
AC50 (Cytochrome P450 3A4): 14.1 µM (inconclusive) | AC50 (Cytochrome P450 2C9): 7.94 µM (inconclusive)

SMILES: Cc1cc(/C=C2/NC(=O)N(Cc3ccccc3F)C2=O)c(C)n1C(C)C
EC50 [1]: 0.154 µM (active) | EC50 [2]: > 60 µM (not active)

SMILES: COc1ccc(NC2CCCN(C(=O)CCCn3cncn3)C2)cc1OC (stereo not drawn)
IC50 [3]: 237 µM (active)

SMILES: COc1cc(OC)c(OC)cc1CN1CCN(C(=O)c2cccc3ccccc23)CC1
IC50 [3]: 244 µM (active)

SMILES: CC(=O)OC1COC(N2CCc3cc([N+](=O)[O-])ccc32)C(OC(C)=O)C1OC(C)=O (stereo not drawn)
AC50 (Cytochrome P450 2C19; read-out: AC50): 3.98 µM (inconclusive) | AC50 (Cytochrome P450 3A4): 25.1 µM (inconclusive)

SMILES: CSc1nc(N)nc(SCC(=O)C23CC4CC(CC(C4)C2)C3)c1C#N
EC50 [1]: 1.59 µM (active) | EC50 [2]: > 60 µM (not active)

SMILES: CCCn1c2c(c(O)c(C(=O)Nc3ccc(OC)cc3)c1=O)CCCC2
EC50 [1]: 2.88 µM (active) | EC50 [2]: > 30 µM (not active)

SMILES: CN(C)c1nc(NC(C)(C)C)nc(NC(C)(C)C)n1
EC50 [1]: 0.596 µM (active) | EC50 [2]: > 60 µM (not active)

SMILES: Cc1nn(C(C)C(=O)N2CCCC2)c(=O)c2nn(-c3ccccc3)c(C)c12 (stereo not drawn)
EC50 [1]: 48.4 µM (active) | EC50 [2]: > 60 µM (not active)

SMILES: Cc1ccccc1-c1ccc2ncnc(N3CCNCC3)c2c1
AC50 (Cytochrome P450 2C19; read-out: AC50): 15.8 µM (inconclusive) | AC50 (Cytochrome P450 3A4): 15.8 µM (inconclusive)

SMILES: COc1ccc(OC)c(CN2CCN(Cc3cccc4ccccc34)CC2)c1
IC50 [3]: 66 µM (active)

SMILES: Cn1nc([N+](=O)[O-])nc1Sc1ccc(Cl)cc1
EC50 [1]: 0.108 µM (active) | EC50 [2]: > 30 µM (not active)

SMILES: COc1cc(C(=O)Nc2ccc3c(c2)N(C(=O)CCN(C)C)c2ccccc2CC3)cc(OC)c1OC
EC50 [1]: 0.642 µM (active) | EC50 [2]: > 60 µM (not active)

SMILES: CCCN1CCC(N(C)CCc2ccc(OC)c(OC)c2)CC1
EC50 [1]: 0.124 µM (active) | EC50 [2]: > 60 µM (not active)

Other lines, results leading:

IC50 [3]: 45.1 µM (active)
SMILES: O=C(CSc1ccc2ccccc2c1)N1CCN(c2ccc(O)cc2)CC1

AC50 (Cytochrome P450 2C19): inconclusive
SMILES: CCN(CC)S(=O)(=O)N1CCC(C(=O)NCc2ccc(C)cc2)CC1

AC50 (Cytochrome P450 2C9): 1.26 µM (inconclusive)
SMILES: CCC(=O)NC(Nc1sc2c(c1C(=O)OC)CCCC2)(C(F)(F)F)C(F)(F)F

AC50 (Cytochrome P450 2C9): 2.24 µM (inconclusive)
SMILES: CCOC(=O)c1cc(NC(=O)c2ccc(OC)cc2)c(=O)oc1-c1ccccc1

IC50 [3]: 145 µM (active)
SMILES: COc1cc(C(=O)N/N=C(\C)c2ccc(NC(=O)Cc3ccccc3)cc2)ccc1O

AC50 (Cytochrome P450 2C9): 1.58 µM (inconclusive)
SMILES: O=C(CN(c1ccccc1)S(=O)(=O)c1ccccc1[N+](=O)[O-])NN=C1CCCCCCC1

IC50 [3]: 225 µM (active)
SMILES: COCCNCc1nc(O)c2c(-c3ccccc3)c(C)sc2n1

AC50 (Cytochrome P450 3A4): 20 µM (inconclusive)
SMILES: CC(C)CC1NC(=S)N(C2CCCCC2)C1=O (stereo not drawn)

AC50 (Cytochrome P450 2C9): 0.794 µM (inconclusive)
SMILES: CN(Cc1ccco1)c1ncncc1-c1ccc2c(c1)OCO2

AC50 (Cytochrome P450 3A4): 25.1 µM (inconclusive) | AC50 (Cytochrome P450 2C9): 8.91 µM (inconclusive)
SMILES: CCCCOC(=O)CSc1nnc(-c2cc(OC)c(OC)c(OC)c2)o1

AC50 (Cytochrome P450 2C19; read-out: AC50): 20 µM (inconclusive)
SMILES: O=C(NC1CCCCC1)C(c1ccccc1)N1CCOCC1 (stereo not drawn)

AC50 (Cytochrome P450 2C19; read-out: AC50): 35.5 µM (inconclusive)
SMILES: CCCCNC(=O)C1CCN(Cc2ccccn2)CC1

AC50 (Cytochrome P450 3A4): 25.1 µM (inconclusive)
SMILES: O=c1c(-c2cccc(Cl)c2)nc2cncnc2n1-c1ccccc1

AC50 (Cytochrome P450 2C9): 1.26 µM (inconclusive)
SMILES: Cc1ccccc1-c1ccc2ncnc(NCc3cccs3)c2c1

AC50 (Cytochrome P450 2C19; read-out: AC50): 3.98 µM (inconclusive)
SMILES: CC(=O)Oc1cc(C(F)(F)F)ccc1C(=O)O [TRIFLUSAL]

AC50 (Cytochrome P450 2C9): 28.2 µM (inconclusive)
SMILES: CC(C)(C)C(=O)OCc1cn(-c2ccc(Cl)cc2)nn1

AC50 (Cytochrome P450 3A4): 15.8 µM (inconclusive)
SMILES: CCNc1ncc2nc(C)c(=O)n(CCc3ccccc3)c2n1

AC50 (Cytochrome P450 2C9): 2.51 µM (inconclusive)
SMILES: CC(C)C(=O)Nc1ccc(C(=O)NNC(=O)CCCOc2ccc(Cl)cc2Cl)cc1

AC50 (Cytochrome P450 2C19; read-out: AC50): 0.0316 µM (inconclusive)
SMILES: O=C(O)C1CCN(c2ncccn2)CC1

AC50 (Cytochrome P450 2C9): 0.501 µM (inconclusive)
SMILES: COc1ccccc1-c1cncnc1NCCc1cnc[nH]1

AC50 (Cytochrome P450 2C9): 15.8 µM (inconclusive)
SMILES: CCC(=O)N[C@@H]1CCc2cccc(OC)c2C1

AC50 (Cytochrome P450 3A4): 12.6 µM (inconclusive)
SMILES: Cc1noc(C)c1C(=O)N1CCC2(CCN(Cc3ccncc3)CC2)CC1

AC50 (Cytochrome P450 3A4): 20 µM (inconclusive)
SMILES: CS(=O)(=O)N1CCC2(CC1)CN(c1ncccn1)C2

AC50 (Cytochrome P450 2C9): 3.98 µM (inconclusive)
SMILES: Nc1ccc(Oc2ccc3nc(-c4ccccc4)c(-c4ccc([N+](=O)[O-])cc4)nc3c2)cc1

AC50 (Cytochrome P450 2C19; read-out: AC50): 39.8 µM (inconclusive)
SMILES: CN1CCN(c2ncnc3ccc(-c4ccc5c(c4)OCO5)cc23)CC1

AC50 (Cytochrome P450 2C9): 0.794 µM (inconclusive)
SMILES: COc1ccc(CNc2ncncc2-c2ccccc2OC)c(OC)c1

IC50 [3]: 50.4 µM (active)
SMILES: CN(C)/N=C/c1ccc(OC(=O)c2cccc([N+](=O)[O-])c2)cc1

AC50 (Cytochrome P450 2C19; read-out: AC50): 5.01 µM (inconclusive) | AC50 (Cytochrome P450 3A4): 14.1 µM (inconclusive)
SMILES: COc1ccc2oc(C(=O)c3ccccc3)c(N)c2c1

AC50 (Cytochrome P450 2C19; read-out: AC50): 20 µM (inconclusive) | AC50 (Cytochrome P450 3A4): 7.08 µM (inconclusive)
SMILES: CCC(O)CNc1nc(-n2nc(C)cc2C)nc2sc3c(c12)CC(C)(C)OC3 (stereo not drawn)

IC50 [3]: 84.1 µM (active)
SMILES: CN1CCN(CCOCCOc2ccc(Br)cc2Cl)CC1

AC50 (Cytochrome P450 2C19): inconclusive
SMILES: C[C@H]1COC(=O)[C@H]2CCCN2C(=O)[C@@H](C)COC(=O)[C@H](Cc2ccccc2)NC1=O
